Assay results taken from paper PMC6677754, “In silico design and optimization of selective membranolytic anticancer peptides” (Scientific Reports, 2019).
Peptide text beside a SMILES is read from it.

How the values were obtained:
human erythrocytes = assay: Hemolysis assay; format: cell-based; conditions: for Eryhtr. HC50 /µM: 1 h
How it was run: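 Washed human erythrocytes (5% v/v in PBS) were mixed with peptide plated as a 200–6.25 μM series, in triplicate, for 1 h at 37 °C. Released haemoglobin in the supernatant was read at 540 nm, scaled to 0.1% Triton X-100 (100%) and PBS (0%). HC50 came from a 3-parameter log-logistic fit.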

BT-549 = assay: NCI-60 screening; format: cell-based, human; conditions: BT-549 (Breast); log GI50; 48 h, sulforhodamine B, 10^-4 to 10^-8 M
Protocol: (§1) NCI-60 screening procedure
(§2) The NCI-60 screening procedure was performed by the Developmental Therapeutics Program of the National Cancer Institute. The procedure was performed as previously described24 in 96-well microtiter plates. Each peptide was tested in a 5-concentration assay, starting at 10^-4 M and diluting 10-fold to the lowest 10^-8 M concentration. The peptides were incubated for 48 h and the cell concentration was assayed by using the sulforhodamine B assay25 and optical density measurements. The growth inhibition (GI50) value24, measures the growth inhibitory power of the drug agent. The GI50 value is the concentration of the test drug for which the condition in Eq. S1 is met, where T is the optical density of the test well after a 48-h exposure to the peptide, T0 the optical density before applying the peptide drug and C the control optical density of a well where no peptide was applied.

OVCAR-3 = assay: NCI-60 screening; format: cell-based, human; conditions: OVCAR-3 (Ovarian); log GI50; 48 h, sulforhodamine B, 10^-4 to 10^-8 M
Protocol: as §1, §2

MDA-MB-231/ATCC = assay: NCI-60 screening; format: cell-based, human; conditions: MDA-MB-231/ATCC (Breast); log GI50; 48 h, sulforhodamine B, 10^-4 to 10^-8 M
Protocol: as §1, §2

UO-31 = assay: NCI-60 screening; format: cell-based, human; conditions: UO-31 (Renal); log GI50; 48 h, sulforhodamine B, 10^-4 to 10^-8 M
Protocol: as §1, §2

SN12C = assay: NCI-60 screening; format: cell-based, human; conditions: SN12C (Renal); log GI50; 48 h, sulforhodamine B, 10^-4 to 10^-8 M
Protocol: as §1, §2

CCRF-CEM = assay: NCI-60 screening; format: cell-based, human; conditions: CCRF-CEM (Leukemia); log GI50; 48 h, sulforhodamine B, 10^-4 to 10^-8 M
Protocol: as §1, §2

SK-MEL-2 = assay: NCI-60 screening; format: cell-based, human; conditions: SK-MEL-2 (Melanoma); log GI50; 48 h, sulforhodamine B, 10^-4 to 10^-8 M
Protocol: as §1, §2

DU-145 = assay: NCI-60 screening; format: cell-based, human; conditions: DU-145 (Prostate); log GI50; 48 h, sulforhodamine B, 10^-4 to 10^-8 M
Protocol: as §1, §2

UACC-62 = assay: NCI-60 screening; format: cell-based, human; conditions: UACC-62 (Melanoma); log GI50; 48 h, sulforhodamine B, 10^-4 to 10^-8 M
Protocol: as §1, §2

[1] = test system: noncancer HDMEC primary cells (human dermal microvascular endothelial cells); assay: Cell viability assay (MTT); format: cell-based; conditions: for EC50: Table S2, noncancer primary cells, MTT, 24 h, mean ± sd, N = 2 independent measurements with six technical replicates each (Figs S6-S8)
How it was run: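 Viability by MTT: 10^4 cells/well exposed 24 h to 2-fold peptide dilutions from 100 μM in DMEM, then 1 h with 0.5 mg mL−1 MTT; absorbance at 540 nm relative to peptide-free medium as 100% survival. EC50 from a 3-parameter log-logistic fit.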

[2] = Fig. 1d, compared with the EC50 against cancer cell lines, N = 3

| SMILES | half-effective hemolytic concentration (HC50) against human erythrocytes (in words) (human erythrocytes; [2]) | Eryhtr. HC50 /µM (human erythrocytes; Table S2, 5% v/v erythrocytes in PBS added 1:1, peptide 200 to 6.25 µM, 37°C, absorbance 540 nm, 0.1% Triton-X-100 = 100%, mean ± sd, N = 2 independent, three technical replicates) | Log GI (M) (BT-549) | Log GI (M) (OVCAR-3) | Log GI (M) (MDA-MB-231/ATCC) | Log GI (M) (UO-31) | Log GI (M) (SN12C) | Log GI (M) (CCRF-CEM) | Log GI (M) (SK-MEL-2) | Log GI (M) (DU-145) | Log GI (M) (UACC-62) | EC50 value against the noncancer HDMEC primary cell line (in words) [1, 2] | EC50 [1] | Eryhtr. HC50 /µM (human erythrocytes; red cells of human) |
| --- | --- | --- | --- | --- | --- | --- | --- | --- | --- | --- | --- | --- | --- | --- |
| CC[C@H](C)[C@H](NC(=O)[C@H](CCCNC(=N)N)NC(=O)[C@H](Cc1c[nH]c2ccccc12)NC(=O)[C@@H](NC(=O)[C@H](CCCCN)NC(=O)[C@H](CCCCN)NC(=O)[C@@H](NC(=O)[C@@H](NC(=O)[C@@H](NC(=O)[C@H](CCCCN)NC(=O)[C@H](Cc1ccccc1)NC(=O)[C@H](CCCCN)NC(=O)[C@H](CCCCN)NC(=O)[C@H](Cc1ccccc1)NC(=O)[C@@H](NC(=O)[C@@H](N)CCCCN)[C@@H](C)CC)[C@@H](C)O)[C@@H](C)CC)[C@@H](C)CC)C(C)C)C(=O)N[C@@H](Cc1ccccc1)C(=O)NCC(=O)N[C@@H](CCCNC(=N)N)C(=O)N[C@@H](Cc1ccccc1)C(N)=O [AmphiArc2] (H-KIFKKFKTIIKKVWRIFGRF-NH2) | same low-micromolar range | 16 ± 2 µM | -5.45 M | -5.67 M | -5.72 M | -5.74 M | -5.69 M | -5.60 M | -5.58 M | -5.77 M | -5.69 M | same low-micromolar range | 3.3 ± 0.2 µM | – |
| CC[C@H](C)[C@H](NC(=O)[C@H](CCCCN)NC(=O)[C@H](CCCCN)NC(=O)[C@@H](NC(=O)[C@@H](NC(=O)[C@@H](N)Cc1c[nH]cn1)[C@@H](C)CC)[C@@H](C)CC)C(=O)N[C@@H](CCCNC(=N)N)C(=O)N[C@H](C(=O)N[C@@H](Cc1c[nH]c2ccccc12)C(=O)N[C@@H](Cc1ccc(O)cc1)C(=O)N[C@@H](CCCNC(=N)N)C(=O)N[C@@H](CCCCN)C(=O)N[C@@H](C)C(=O)N[C@@H](Cc1c[nH]c2ccccc12)C(=O)N[C@@H](Cc1c[nH]cn1)C(=O)N[C@H](C(=O)N[C@@H](CC(C)C)C(=O)NCC(=O)N[C@@H](CCCCN)C(=O)N[C@H](C(N)=O)C(C)C)C(C)C)[C@@H](C)O [Off2] (H-HIIKKIRTWYRKAWHVLGKV-NH2) | – | – | -4.89 M | -4.98 M | -5.19 M | -4.73 M | -5.53 M | -5.43 M | -5.28 M | -5.37 M | -5.69 M | – | 32 ± 3 µM | > 200 µM |
